{"source": "patent US5569655A", "about": "“Substituted heterocyclylisoquinolinium salts and compositions and method of use thereof” (Sterling Winthrop Inc., priority 1994, dated 1996)", "key": {"[1]": {"test_system": "NMDA-induced neurotoxicity in cultured cortical neurons", "assay": "Antagonism of NMDA-induced neurotoxicity in cultured neurons", "format": "cell-based, mouse (Swiss-Webster)", "conditions": "500 μM NMDA for 30 minutes, LDH activity after 24 hours", "procedure": "Antagonism of NMDA-induced Neurotoxicity in Cultured Neurons\nPreparation of cultured cortical neurons\nPregnant, Swiss-Webster mice were obtained from Taconic Farms (Germantown, N.Y.) and sacrificed 16 days post conception. Fetuses were removed and placed in a sterile dish containing Hank's balanced salt solution (HBSS), pH 7.4. Brain cortices were dissected, meninges were removed, the tissue was minced and placed into a solution of HBSS containing 0.25% (w/v) trypsin at 37° C. for 15 minutes. Tissue was then triturated with a sterile pasteur pipet, diluted with minimal essential media (Gibco 330-1430), pH 7.4, supplemented with 10% horse serum, 10% fetal calf serum, 2 mM 1-glutamine, 21 mM d-glucose, 2.2 g/L sodium bicarbonate, 1000 U/ml penicillin, and 1,000 μg/ml streptomycin. Cells were plated onto Falcon primaria 96 well plates at a final density of 50,000 cells/well and incubated at 37° C. in the presence of 5% (v/v) carbon dioxide. After 5 days, plating media was replaced with maintenance media containing minimal essential media (Gibco 330-1430), pH 7.4, supplemented with 10% horse serum, 10% 1-glutamine, 21 mM D-glucose, 2.2 g/l sodium bicarbonate,1,000 U/ml penicillin, 1,000 μg/ml streptomycin, and 10 μM cytosine arabinoside. On days 7 and 10, media was replaced with maintenance media as above lacking the cytosine arabinoside. Experiments were conducted on day 13.\nNeuroprotection Assessment\nDay 13 cultured cortical neurons were washed twice with minimal essential media, pH 7.4 and then exposed for 30 minutes to 500 μM N-methyl-D-aspartic acid (NMDA) with or without varying concentrations of test agents. […] MK-801 and test agents were prepared in minimal essential media supplemented with 21 mM d-glucose and 2.2 g/L sodium bicarbonate (MEM). After 30 minutes, media was replaced with MEM alone. Exposure of neurons to test agents was limited to the NMDA treatment period. Twenty-four hours after removal of NMDA, an aliquot of media from each well was removed for assessment of cell injury by determining lactate dehydrogenase (LDH) activity by the method of Wroblewski and LaDue Proc. Soc. Exp. Biol. Med. 1955, 90, 210-213. The results are expressed as an IC50 (in nM) value (concentration causing 50% inhibition) for the antagonism of NMDA-induced neurotoxicity.\n(§1) Table 4 summarizes the results obtained from the testing of representative compounds of the invention in the [^3 H]TCP radioreceptor assay as well as in the antagonism of NMDA-induced neurotoxicity in cultured neurons."}, "[2]": {"target": "PCP recognition sites (PCP receptor)", "assay": "[3H]TCP radioreceptor assay (binding to PCP recognition sites)", "set-up": "species or system rat (male Sprague-Dawley", "conditions": "rat whole brain membranes, approx. 1 nM [3H]TCP; for pKi: mean of at least two determinations", "procedure": "[^3 H]TCP Radioreceptor Assay\n[^3 H]TCP binding to PCP recognition sites was performed as described by Vignon et al. Brain Research 1983, 280, 194-197. Male Sprague-Dawley rats were sacrificed by decapitation, and whole brains were homogenized in 10 volumes (wt/vol) of cold Tris-HCl buffer (50 mM, pH 7.7) using a Brinkmann Polytron (setting 6, 30 sec). The homogenate was centrifuged at 40,000×g for 10 min at 4° C. The supernatant was decanted, and the homogenization and centrifugation steps were repeated twice as described above. Following this, the pellet was resuspended in Tris-HCl (5 mM, pH 7.7) at a tissue concentration of 0.5-0.75 g/ml, and one ml aliquots were frozen at -70° C. until use. The binding characteristics for PCP recognition sites were not altered by the freezing of membrane suspensions.\nOn the day of the assay, membrane aliquots were thawed, resuspended in fresh 5 mM Tris-HCl buffer at a tissue concentration of 1 mg/ml, and stored on ice until use. Each assay tube contained 100 μl of [^3 H]TCP at a final concentration of approximately 1 nM, 100 μl of various concentrations of the compounds of interest, 500 μl of the tissue suspension and 300 μl of buffer to a final assay volume of 1 ml and a final protein concentration of 0.5 mg/tube. Non-specific binding was defined by addition of a final concentration of 100 μM PCP to blank tubes. All tubes were incubated at room temperature for 25 min before termination of the reaction by rapid filtration over Whatman GF/B glass fiber filters that had been presoaked in a solution of 0.5% polyethylenimine for at least 1 hr prior to use. Filters were washed with three 4 ml volumes of cold Tris buffer. Following addition of scintillation cocktail, the amount of bound radioactivity was determined by liquid scintillation spectrometry using a Beckman LS 5000TA liquid scintillation counter with an efficiency for tritium of approximately 55%. Inhibition constants (Ki values) were calculated using the EBDA/LIGAND program (McPherson, J. Pharmacol. Meth. 1985, 14, 213-228), purchased from Elsevier/Biosoft, Inc. The results are reported as Ki values (in nM) which are expressed as the mean of at least two separate determinations, or as a percent (%) inhibition of binding at 10 μM.\nas §1"}}, "note": "pIC50, pKi: −log10 of the molar value.", "data": [{"smiles": "c1ccc2c(c1)C1CC(c3ccoc3)(c3ccoc3)C2c2scc[n+]21", "note": "(racemic) [4(e), 11,11-di(3-furyl)-5,10-ethano-5,10-dihydrothiazolo[3,2-b]isoquinolinium chloride]", "values": [{"measurement": "pIC50", "setting": "[1]; Mus musculus, Cortical neurone", "value": 7.30}, {"measurement": "pKi", "setting": "[2]", "value": 8.54}]}, {"smiles": "c1ccc2c(c1)C1CC(c3ccoc3)(c3ccoc3)C2c2scc[n+]21", "note": "(single isomer, unassigned; (+)) [5(e), (+)-11,11-di(3-furyl)-5,10-ethano-5,10-dihydrothiazolo[3,2-b]isoquinolinium chloride]", "values": [{"measurement": "pIC50", "setting": "[1]", "value": 7.70}, {"measurement": "pKi", "setting": "[2]", "value": 8.70}]}, {"smiles": "c1ccc2c(c1)C1CC(c3ccoc3)(c3ccoc3)C2c2scc[n+]21", "note": "(single isomer, unassigned; (-)) [5(c), (-)-11,11-di(3-furyl)-5,10-ethano-5,10-dihydrothiazolo[3,2-b]isoquinolinium chloride]", "values": [{"measurement": "pIC50", "setting": "[1]; Mus musculus, Cortical neurone", "value": 7.49}, {"measurement": "pKi", "setting": "[2]", "value": 8.30}]}, {"smiles": "c1ccc(Cn2cc[n+]3c2C2c4ccccc4C3CC2(c2ccoc2)c2ccoc2)cc1", "note": "(centres unmarked) [2(F), 11,11-di(3-furyl)-5,10-ethano-5,10-dihydro-1-benzylimidazo[1,2-b]isoquinolin-4-ium chloride]", "values": [{"measurement": "pKi", "setting": "[2]", "value": 8.11}]}, {"smiles": "c1ccc(C2(c3ccccc3)CC3c4ccccc4C2c2scc[n+]23)cc1", "note": "(centres unmarked) [2(b), 11,11-diphenyl-5,10-ethano-5,10-dihydrothiazolo[1,2-b]isoquinolin-4-ium chloride]", "values": [{"measurement": "pKi", "setting": "[2]", "value": 8.38}]}, {"smiles": "Cn1cc[n+]2c1C1c3ccccc3C2CC1(c1ccccc1)c1ccccc1", "note": "(centres unmarked) [3(b), 11,11-diphenyl-5,10-ethano-5,10-dihydro-1-methylimidazo[1,2-b]isoquinolin-4-ium chloride]", "values": [{"measurement": "pKi", "setting": "[2]", "value": 7.89}]}, {"smiles": "CCOC1(OCC)C2c3c(OC)cccc3C([n+]3ccsc32)C1(C)C", "note": "(centres unmarked) [6(d), 11,11-diethoxy-12,12-dimethyl-9-methoxy-5,10-ethano-5,10-dihydrothiazolo[3,2-b]isoquinolinium chloride]", "values": [{"measurement": "pIC50", "setting": "[1]; Mus musculus, Cortical neurone", "value": 7.10}, {"measurement": "pKi", "setting": "[2]", "value": 8.04}]}, {"smiles": "CCOC1(OCC)C2c3ccccc3C([n+]3ccn(C)c32)C1(C)C", "note": "(centres unmarked) [7(F), 11,11-diethoxy-12,12-dimethyl-5,10-ethano-5,10-dihydro-1-methylimidazo[1,2-b]isoquinolin-4-ium chloride]", "values": [{"measurement": "pIC50", "setting": "[1]; Mus musculus, Cortical neurone", "value": 7.28}, {"measurement": "pKi", "setting": "[2]", "value": 8.09}]}, {"smiles": "CCOC1(OCC)C2c3ccccc3C([n+]3ccn(Cc4ccccc4)c32)C1(C)C", "note": "(centres unmarked) [8(b), 11,11-diethoxy-12,12-dimethyl-5,10-ethano-5,10-dihydro-1-benzylimidazo[1,2-b]isoquinolin-4-ium chloride]", "values": [{"measurement": "pKi", "setting": "[2]", "value": 8.00}]}, {"smiles": "c1ccc(Cn2cc[n+]3c2C2c4ccccc4C3CC2(c2ccccc2)c2ccccc2)cc1", "note": "(centres unmarked) [9(b), 11,11-diphenyl-5,10-ethano-5,10-dihydro-1-benzylimidazo[1,2-b]isoquinolin-4-ium chloride]", "values": [{"measurement": "pKi", "setting": "[2]", "value": 7.05}]}, {"smiles": "CCOC1(OCC)C2c3ccccc3C([n+]3cnn(C)c32)C1(C)C", "note": "(centres unmarked) [10(b), 11,11-diethoxy-12,12-dimethyl-5,10-ethano-5,10-dihydro-1-methyl-1,2,4-triazolo[1,2-b]isoquinolin-4-ium chloride]", "values": [{"measurement": "pKi", "setting": "[2]", "value": 7.52}]}, {"smiles": "Cn1nc[n+]2c1C1c3ccccc3C2CC1(c1ccccc1)c1ccccc1", "note": "(centres unmarked) [11(g), 11,11-diphenyl-5,10-ethano-5,10-dihydro-1-methyl-1,2,4-triazo[1,2-b]isoquinolin-4-ium chloride]", "values": [{"measurement": "pKi", "setting": "[2]", "value": 7.46}]}, {"smiles": "Cn1nc[n+]2c1C1c3ccccc3C2CC1(c1ccoc1)c1ccoc1", "note": "(centres unmarked) [14(E), 11,11-di(3-furyl)-5,10-ethano-5,10-dihydro-1-methyl-1,2,4-triazolo[1,2-b]isoquinolin-4-ium chloride]", "values": [{"measurement": "pKi", "setting": "[2]", "value": 7.85}]}, {"smiles": "COc1ccc(Cn2ccc(C3(c4ccn(Cc5ccc(OC)cc5)n4)CC4c5ccccc5C3c3scc[n+]34)n2)cc1", "note": "(centres unmarked) [18(e), 11,11-di-[(1-p-methoxybenzyl)-pyrazol-3-yl)]-5,10-ethano-5,10-dihydrothiazolo[3,2-b]isoquinolinium perchlorate]", "values": [{"measurement": "[3H]TCP percent inhibition of binding @ 10 μM", "setting": "[2]; 10 μM", "value": 6, "unit": "%"}]}, {"smiles": "COc1ccc(Cn2cc[n+]3c2C2c4ccccc4C3CC2(c2ccoc2)c2ccoc2)cc1", "note": "(centres unmarked) [19(F), 11,11-di(3-furyl)-5,10-ethano-5,10-dihydro-1-(p-methoxybenzyl)imidazo[1,2-b]isoquinolin-4-ium chloride]", "values": [{"measurement": "pKi", "setting": "[2]", "value": 7.52}]}, {"smiles": "c1ccc(-n2cc[n+]3c2C2c4ccccc4C3CC2(c2ccoc2)c2ccoc2)cc1", "note": "(centres unmarked) [199(f), 11,11-di(3-furyl)-5,10-ethano-5,10-dihydro-1-phenylimidazo[1,2-b]isoquinolin-4-ium chloride]", "values": [{"measurement": "pKi", "setting": "[2]", "value": 7.28}]}, {"smiles": "c1ccc(CCCn2cc[n+]3c2C2c4ccccc4C3CC2(c2ccoc2)c2ccoc2)cc1", "note": "(centres unmarked) [200(g), 11,11-di(3-furyl)-5,10-ethano-5,10-dihydro-1-(3-phenylpropyl)imidazo[1,2-b]isoquinolin-4-ium chloride]", "values": [{"measurement": "pKi", "setting": "[2]", "value": 7.17}]}, {"smiles": "CCCCn1cc[n+]2c1C1c3ccccc3C2CC1(c1ccoc1)c1ccoc1", "note": "(centres unmarked) [201(f), 11,11-di(3-furyl)-5,10-ethano-5,10-dihydro-1-butylimidazo-[1,2-b]isoquinolin-4-ium chloride]", "values": [{"measurement": "pKi", "setting": "[2]", "value": 7.44}]}, {"smiles": "c1ccc(Cn2cc[n+]3c2C2c4ccccc4C3CC2(c2cc[nH]n2)c2cc[nH]n2)cc1", "note": "(centres unmarked) [202(c), 11,11-di(pyrazol-3-yl)-5,10-ethano-5,10-dihydro-1-benzylimidazo-[1,2-b]isoquinolin-4-ium chloride]", "values": [{"measurement": "pKi", "setting": "[2]", "value": 7.44}]}, {"smiles": "c1ccc(C(c2ccccc2)n2cc[n+]3c2C2c4ccccc4C3CC2(c2ccoc2)c2ccoc2)cc1", "note": "(centres unmarked) [203(d), 11,11-di(3-furyl)-5,10-ethano-5,10-dihydro-1-(1,1-diphenylmethyl)imidazo[1,2-b]isoquinolin-4-ium hexafluorophosphate]", "values": [{"measurement": "pKi", "setting": "[2]", "value": 6.51}]}, {"smiles": "c1ccc2c(c1)C1CC(c3ccoc3)(c3ccoc3)C2c2n(Cc3ccc4ccccc4c3)cc[n+]21", "note": "(centres unmarked) [204(e), 11,11-di(3-furyl)-5,10-ethano-5,10-dihydro-1-(2-naphthyl-methyl)imidazo[1,2-b]isoquinolin-4-ium chloride]", "values": [{"measurement": "pKi", "setting": "[2]", "value": 6.48}]}, {"smiles": "c1ccc2c(c1)C1CC(c3ccoc3)(c3ccoc3)C2c2n(Cc3cccc4ccccc34)cc[n+]21", "note": "(centres unmarked) [205(e), 11,11-di(3-furyl)-5,10-ethano-5,10-dihydro-1(1-naphthylmethyl)imidazo[1,2-b]isoquinolin-4-ium chloride]", "values": [{"measurement": "pKi", "setting": "[2]", "value": 6.48}]}, {"smiles": "COc1cccc2c1C1c3scc[n+]3C2CC1(c1ccoc1)c1ccoc1", "note": "(centres unmarked) [207(b), 11,11-di(3-furyl)-9-methoxy-5,10-ethano-5,10-dihydrothiazolo[3,2-b]isoquinolinium chloride]", "values": [{"measurement": "pKi", "setting": "[2]", "value": 7.85}]}, {"smiles": "O=C1CC(C2(C3=COC(=O)C3)CC3c4ccccc4C2c2scc[n+]23)=CO1.[O-][Cl+3]([O-])([O-])[O-]", "note": "(centres unmarked) [Example 17, 11,11-di-(5-oxo-4,5-dihydro-3-furyl)-5,10-ethano-5,10-dihydrothiazolo[3,2-b]isoquinolinium perchlorate]", "values": [{"measurement": "pKi", "setting": "[2]", "value": 6.19}]}]}
